This is an account of results in patent publication US10889573B2, “Anthelmintic quinoline-3-carboxamide derivatives” (Bayer Animal Health GMBH, priority 2016, dated 2021).

The subject of assay [1] is Nippostrongylus brasiliensis. Description: In vitro assay 2: Nippostrongylus brasiliensis (NIPOBR), acetylcholine esterase readout. The settings on record: read-out: activity (reduction of AChE compared to negative control); for inhibition at 1 µg/mL: 1 μg/ml; for inhibition at 10 µg/mL: 10 μg/ml. The method, then: In Vitro Assay 2: Nippostrongylus brasiliensis (NIPOBR)
Adult Nippostrongylus brasiliensis were washed with saline buffer containing 100 U/ml penicillin, 0.1 mg/ml streptomycin and 2.5 μg/ml amphotericin B. Test compounds were dissolved in DMSO and worms were incubated in medium in a final concentration of 10 μg/ml (10 ppm) respectively 1 μg/ml (1 ppm). An aliquot of the medium was used to determine the acetylcholine esterase activity in comparison to a negative control. The principle of measuring acetylcholine esterase as readout for anthelmintic activity was described in Rapson et al (1986) and Rapson et al (1987).

In assay [2] the test system is Dirofilaria immitis microfilariae. Description: In vitro assay 3: Dirofilaria immitis microfilariae (DIROIM L1), motility. The settings on record: 72 h, read-out: EC50 (reduction of motility), 72 h incubation.
Assay [3] has as its system Dirofilaria immitis third-stage larvae. Put plainly: In vitro assay 4: Dirofilaria immitis (DIROIM L4), motility. The settings on record: 72 h, read-out: EC50 (reduction of motility).
For assay [4], the system named is Cooperia curticei. The settings on record: Cooperia curticei, 120 h, read-out: activity (larval mortality).
Description: In Vitro Assay 6: Cooperia curticei (COOPCU L3)
Solvent: dimethyl sulfoxide
Approximately 40 nematode larvae (Cooperia curticei) are transferred into a test tube containing the compound solution.
After 5 days percentage of larval mortality is recorded. 100% efficacy means all larvae are killed; 0% efficacy means no larvae are killed.
For assay [5], the target named is C. elegans Slo-1a (Caenorhabditis elegans, UniProt Q95V25). The settings on record: pE50 (negative decadic logarithm of EC50), CHO cells expressing C. elegans Slo-1a, voltage sensitive dye.
C. elegans Slo-1a, sequence (Q95V25 whole entry): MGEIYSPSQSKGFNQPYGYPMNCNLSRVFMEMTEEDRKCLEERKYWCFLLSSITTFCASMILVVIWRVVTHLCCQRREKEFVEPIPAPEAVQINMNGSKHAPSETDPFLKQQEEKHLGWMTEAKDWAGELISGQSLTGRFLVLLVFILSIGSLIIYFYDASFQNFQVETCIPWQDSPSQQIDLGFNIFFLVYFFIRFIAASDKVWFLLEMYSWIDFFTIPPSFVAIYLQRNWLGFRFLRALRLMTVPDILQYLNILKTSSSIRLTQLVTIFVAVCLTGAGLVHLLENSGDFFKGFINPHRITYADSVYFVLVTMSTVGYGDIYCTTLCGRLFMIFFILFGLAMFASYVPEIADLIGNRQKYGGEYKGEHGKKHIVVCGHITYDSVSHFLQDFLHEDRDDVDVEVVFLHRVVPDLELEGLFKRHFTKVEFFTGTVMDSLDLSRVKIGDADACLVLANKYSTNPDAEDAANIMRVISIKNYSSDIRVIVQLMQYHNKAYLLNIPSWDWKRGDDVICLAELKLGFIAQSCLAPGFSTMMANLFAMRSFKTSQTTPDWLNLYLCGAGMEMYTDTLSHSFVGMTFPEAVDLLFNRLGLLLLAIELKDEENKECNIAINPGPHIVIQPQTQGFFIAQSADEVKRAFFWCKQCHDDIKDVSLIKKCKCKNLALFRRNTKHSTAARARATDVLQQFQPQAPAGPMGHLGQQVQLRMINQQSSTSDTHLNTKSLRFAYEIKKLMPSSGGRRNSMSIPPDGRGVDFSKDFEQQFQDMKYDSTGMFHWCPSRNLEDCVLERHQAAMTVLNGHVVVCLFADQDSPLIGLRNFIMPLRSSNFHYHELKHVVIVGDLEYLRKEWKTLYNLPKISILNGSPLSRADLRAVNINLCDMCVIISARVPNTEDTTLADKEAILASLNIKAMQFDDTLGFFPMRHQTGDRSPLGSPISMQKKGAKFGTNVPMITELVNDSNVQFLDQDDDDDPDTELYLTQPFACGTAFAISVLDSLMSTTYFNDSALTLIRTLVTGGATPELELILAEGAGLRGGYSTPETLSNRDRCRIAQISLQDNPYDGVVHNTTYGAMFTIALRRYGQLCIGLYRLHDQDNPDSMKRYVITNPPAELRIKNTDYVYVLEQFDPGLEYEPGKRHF
Description: In Vitro Assay 1: C. elegans Slo-1a—Action at a Recombinant C. elegans Cell Line
Cells were cultured at 37° C. and 5% CO2 in MEMalpha with Gutamax I (Invitrogen, Nr.: 32571), supplemented with 10% (v/v) heat inactivated fetal bovine serum (Invitrogen, Nr.: 10500), G418 (1 mg/ml, Invitrogen, Nr.: 10131). Cells were detached using Accutase (Sigma, Nr.: A6964).
Membrane Potential Measurements
Laboratory compound testing was performed on 384-well microtiter plates (MTPs, Greiner, Nr.: 781092). 8000 cells/well were plated onto 384-well MTPs and cultured for 20 to 24 hours at 37° C. and 5% CO2. After removal of the cell culture medium, the cells were washed once with tyrode (150 mM NaCl, 0.3 mM KCl, 2 mM CaCl2, 1 mM MgCl2, 0.8 mM NaH2PO4, 5 mM Glucose, 28 mM Hepes, pH 7.4) and then loaded with the voltage sensitive dye of the Membrane Potential Assay Kit diluted in tyrode for 1 h at room temperature.
After starting the measurement of fluorescence using a FLIPR Tetra (Molecular Devices, Exc. 510-545 nm, Emm. 565-625 nm), test compounds were added followed by the addition of KCl tyrode (final assay concentration: 70 mM KCl, 2 mM CaCl2, 1 mM MgCl2, 0.8 mM NaH2PO4, 5 mM Glucose, 28 mM Hepes, pH 7.4, including the voltage sensitive dye). The measurement was completed after 7 minutes.
The data were evaluated by using the ActivityBase XLfit software (IDBS) for curve fitting and calculation of the half-maximal effective concentration (EC50) and are reported as negative decadic logarithm (pE50).
In assay [6] the test system is Haemonchus contortus. The settings on record: 120 h, read-out: activity (larval mortality).
Description: In Vitro Assay 7: Haemonchus contortus (HAEMCO L3)
Solvent: dimethyl sulfoxide
Approximately 40 larvae of the red stomach worm (Haemonchus contortus) are transferred into a test tube containing compound solution.
After 5 days the percentage of larval mortality is recorded. 100% efficacy means all larvae are killed, 0% efficacy means no larvae are killed.

Usually EC50 stands for the concentration giving half of the maximal effect. The mortality is the percentage killed. Regarding `O=C(N[C@H]1CCOc2ccccc21)c1cnc2c(-c3cccc(Cl)c3Cl)c(C(F)(F)F)ccc2c1N1CCOCC1` [Example 314], the inhibition at 1 µg/mL in assay [1] is greater than 80%. In addition, the EC50 in assay [2] is less than 0.1 µg/mL; in assay [3], less than 0.1 µg/mL; in assay [5] it was less than 3.16 nM. For the same compound, the mortality at 20 ppm in assay [4] is 90%.
With `COC(=O)[C@H]1CCN(c2c(C(=O)N[C@H]3CCOc4ccccc43)cnc3c(-c4cc(Cl)cc(Cl)c4)cccc23)C1` [Example 281], the inhibition at 1 µg/mL in assay [1] is greater than 80%. The EC50 was less than 0.1 µg/mL in assay [2], less than 0.1 µg/mL in assay [3] and less than 3.16 nM in assay [5]. Further, the mortality at 4 ppm in assay [4] and in assay [6] was 80% in each case. Moreover, the mortality at 20 ppm in assay [4] amounted to 90%; in assay [6], 80%.
Consider `O=C(N[C@H]1CCOc2ccccc21)c1cnc2c(-c3ccc(F)c(Cl)c3)cccc2c1N1CCC(O)C1` (mixture of isomers) [Example 196], for which the EC50 in assay [2] was less than 0.1 µg/mL; in assay [3] it was less than 0.1 µg/mL; in assay [5], 3.16 to 31.6 nM. Further, the mortality at 4 ppm in assay [4] stood at 90%. Moreover, the mortality at 20 ppm in assay [4] came to 100%.
As to `CN(C)c1c(C(=O)N[C@H]2CCOc3ccccc32)cnc2c(-c3cccc(Cl)c3Cl)c(F)ccc12` [Example 330], the inhibition at 1 µg/mL in assay [1] was greater than 80%. Moreover, the EC50 in assay [2] was less than 0.1 µg/mL; in assay [3], less than 0.1 µg/mL; in assay [5] it was less than 3.16 nM. Besides, the mortality at 4 ppm in assay [4] stood at 90%; in assay [6], 100%. Besides, the figures for the mortality at 20 ppm in assay [4] and in assay [6] were 90% and 100%, respectively.
Consider `CC(C)c1c(C(=O)N[C@H]2CCOc3ccccc32)cnc2c(-c3cccc(C(F)(F)F)c3)cccc12` [Example 411], for which the inhibition at 1 µg/mL in assay [1] is greater than 80%. Also, the values for the EC50 in assay [2], in assay [3] and in assay [5] were less than 0.1 µg/mL, less than 0.1 µg/mL and less than 3.16 nM, respectively. For the same compound, the mortality at 4 ppm in assay [4] and in assay [6] was 100% each time. Also, the mortality at 20 ppm in assay [4] and in assay [6] was 100% each time.
On to `O=C(N[C@H]1CCOc2ccccc21)c1cnc2c(-c3cc(Cl)cc(Cl)c3)cccc2c1N1CC(F)C1` [Example 392], for which the inhibition at 1 µg/mL in assay [1] is greater than 80%. Besides, the 50% effective concentration (EC50) was less than 0.1 µg/mL in assay [2], less than 0.1 µg/mL in assay [3] and 3.16 to 31.6 nM in assay [5]. In addition, the mortality at 4 ppm in assay [6] turned out to be 80%. Besides, the mortality at 20 ppm in assay [6] is 80%.
For the compound `O=C(N[C@H]1CCOc2ccccc21)c1cnc2c(-c3cccc(Cl)c3Cl)cccc2c1N1CCC(O)C1` (mixture of isomers) [Example 194], the inhibition at 1 µg/mL in assay [1] was greater than 80%. Besides, the values for the EC50 in assay [2], in assay [3] and in assay [5] were less than 0.1 µg/mL, less than 0.1 µg/mL and less than 3.16 nM, respectively. Further, the mortality at 4 ppm in assay [4] is 100%; in assay [6], 90%. Further, the mortality at 20 ppm in assay [4] and in assay [6] was 100% throughout.
Regarding `O=C(N[C@H]1CCOc2ccccc21)c1cnc2c(-c3cc(F)cc(F)c3F)cccc2c1C1COC1` [Example 660, N-[(4S)-3,4-dihydro-2H-chromen-4-yl]-4-(oxetan-3-yl)-8-(2,3,5-trifluorophenyl)quinoline-3-carboxamide], the inhibition at 1 µg/mL in assay [1] is greater than 80%. The EC50 was less than 0.1 µg/mL in assay [2], less than 0.1 µg/mL in assay [3] and less than 3.16 nM in assay [5]. Further, the mortality at 4 ppm in assay [4] and in assay [6] was 100% throughout. The mortality at 20 ppm in assay [4] and in assay [6] was 100% throughout.
Turning to `O=C(N[C@H]1CCOc2ccccc21)c1cnc2c(-c3cc(Cl)ccc3F)cccc2c1N1CCOCC1` [Example 221], the inhibition at 1 µg/mL in assay [1] is greater than 80%. Besides, the EC50 in assay [2] is less than 0.1 µg/mL; in assay [3] it was less than 0.1 µg/mL; in assay [5], less than 3.16 nM. Also, the mortality at 4 ppm in assay [4] and in assay [6] was 90% in each case. Moreover, the mortality at 20 ppm in assay [4] and in assay [6] was 100% each time.
For `Cc1cc(-c2cccc3c(N4CCOCC4)c(C(=O)N[C@H]4CCOc5ccccc54)cnc23)cc(C(C)(C)C)c1` [Example 587], the inhibition at 1 µg/mL in assay [1] is greater than 80%. Besides, the EC50 was less than 0.1 µg/mL in assay [2], less than 0.1 µg/mL in assay [3] and less than 3.16 nM in assay [5]. In assay [4], the mortality at 20 ppm was 80%.
As to `Cc1cc(Cl)cc(-c2cccc3c(N4CCC(O)C4)c(C(=O)N[C@H]4CCOc5ccccc54)cnc23)c1F` (mixture of isomers) [Example 272], in assay [1], the inhibition at 1 µg/mL is greater than 80%. In addition, the EC50 was less than 0.1 µg/mL in assay [2], less than 0.1 µg/mL in assay [3] and less than 3.16 nM in assay [5]. The mortality at 20 ppm in assay [4] is 80%; in assay [6], 90%. Also, the mortality at 4 ppm in assay [6] was found to be 90%.
Consider `O=C(N[C@H]1CCOc2ccccc21)c1cnc2c(-c3cccc(F)c3Cl)cccc2c1N1CCC(O)C1` (mixture of isomers) [Example 258], for which the EC50 in assay [2] is less than 0.1 µg/mL; in assay [3], less than 0.1 µg/mL; in assay [5] it was 3.16 to 31.6 nM. For the same compound, in assay [4], the mortality at 4 ppm came to 80%. In assay [6], the mortality at 20 ppm stood at 90%.
On to `COCCOc1c(C(=O)N[C@H]2CCOc3ccccc32)cnc2c(-c3cc(Cl)cc(Cl)c3)cccc12` [Example 338], for which, in assay [1], the inhibition at 1 µg/mL was greater than 80% and the inhibition at 10 µg/mL is greater than 80%. The EC50 in assay [2] is less than 0.1 µg/mL. Besides, the EC50 in assay [3] was less than 0.1 µg/mL. In assay [4], the mortality at 4 ppm turned out to be 90% and the mortality at 20 ppm turned out to be 90%. In assay [5], the EC50 is less than 3.16 nM.
Turning to `CN(C)c1c(C(=O)N[C@H]2CCOc3ccccc32)cnc2c(-c3cccc(C(F)(F)F)c3F)cccc12` [Example 50], the inhibition at 1 µg/mL in assay [1] is greater than 80%. In addition, the inhibition at 10 µg/mL in assay [1] is greater than 80%. For the same compound, the EC50 in assay [2] is less than 0.1 µg/mL; in assay [3], less than 0.1 µg/mL; in assay [5], less than 3.16 nM. Further, the results for the mortality at 4 ppm in assay [4] and in assay [6] were 80% and 90%, respectively. Also, the mortality at 20 ppm in assay [4] is 90%; in assay [6] it was 100%.
As to `CN(C)c1c(C(=O)N[C@H]2CCOc3ccccc32)cnc2c(-c3cccc(Cl)c3Cl)c(C(F)(F)F)ccc12` [Example 315], the inhibition at 1 µg/mL in assay [1] was greater than 80%. The EC50 in assay [2] was less than 0.1 µg/mL; in assay [3] it was less than 0.1 µg/mL; in assay [5], less than 3.16 nM. For the same compound, in assay [4], the mortality at 20 ppm worked out at 80%.
For the compound `O=C(N[C@H]1CCOc2ccccc21)c1cnc2c(-c3cc(Cl)cc(Cl)c3)cccc2c1N1CC[C@@H](C(=O)O)C1` [Example 332], the inhibition at 1 µg/mL in assay [1] was greater than 80%. Moreover, the EC50 in assay [2] is less than 0.1 µg/mL; in assay [3] it was less than 0.1 µg/mL; in assay [5], less than 3.16 nM. Also, the mortality at 4 ppm in assay [4] and in assay [6] was 100% in each case. Besides, the mortality at 20 ppm in assay [4] and in assay [6] was 100% in each case.
`CN(C)c1c(C(=O)N[C@H]2CCOc3ccccc32)cnc2c(-c3cc(Cl)ncc3Cl)cccc12` [Example 415]: the inhibition at 1 µg/mL in assay [1] was greater than 80%. The EC50 in assay [2] was less than 0.1 µg/mL; in assay [3] it was less than 0.1 µg/mL; in assay [5] it was less than 3.16 nM. The mortality at 4 ppm is 100% in assay [4] and 90% in assay [6]. The mortality at 20 ppm in assay [4] and in assay [6] was 100% in each case.
As to `O=C(N[C@H]1CCOc2ccccc21)c1cnc2c(-c3cccc(F)c3Cl)cccc2c1N1CCOCC1` [Example 238], in assay [1], the inhibition at 1 µg/mL was greater than 80%. The values for the EC50 in assay [2], in assay [3] and in assay [5] were less than 0.1 µg/mL, less than 0.1 µg/mL and less than 3.16 nM, respectively. Moreover, the mortality at 20 ppm in assay [4] is 80%.
In the case of `O=C(N[C@H]1CCOc2ccccc21)c1cnc2c(-c3cc(Cl)cc(Cl)c3)cccc2c1C1CCOCC1` [Example 539, 8-(3,5-dichlorophenyl)-N-[(4S)-3,4-dihydro-2H-chromen-4-yl]-4-(tetrahydro-2H-pyran-4-yl)quinoline-3-carboxamide], the results for the EC50 in assay [2], in assay [3] and in assay [5] were less than 0.1 µg/mL, less than 0.1 µg/mL and less than 3.16 nM, respectively. For the same compound, the mortality at 4 ppm in assay [4] and in assay [6] was 100% throughout. In addition, the mortality at 20 ppm in assay [4] and in assay [6] was 100% throughout.
For `O=C(N[C@H]1CCOc2ccccc21)c1cnc2c(-c3cccc(OC(F)(F)F)c3)cccc2c1N1CCOCC1` [Example 322], the inhibition at 1 µg/mL in assay [1] is greater than 80%. In addition, the results for the EC50 in assay [2], in assay [3] and in assay [5] were less than 0.1 µg/mL, less than 0.1 µg/mL and less than 3.16 nM, respectively. Moreover, the mortality at 20 ppm in assay [4] was determined as 80%.
As to `Cc1ccc(F)c(-c2cccc3c(N(C)C)c(C(=O)N[C@H]4CCOc5ccccc54)cnc23)c1` [Example 437], in assay [1], the inhibition at 1 µg/mL is greater than 80%. The EC50 was less than 0.1 µg/mL in assay [2], less than 0.1 µg/mL in assay [3] and less than 3.16 nM in assay [5]. The mortality at 4 ppm in assay [4] stood at 80%.
